Reference: patent publication US4556735A, “Spergualin-related compounds having a phenylene group as well as a process for producing the same” (Zaidan Hojin Biseibutsu Kagaku Kenkyukai, priority 1984, dated 1985)
Structures can show the parent of a compound that is named as a salt.

Assays:
[1] = system: mouse leukemia L1210 cells; experiment: Inhibition of in vitro growth of mouse leukemia L1210 cells; type: cell-based; settings: 48 hours at 37° C., 5% CO2
Procedure: Leukemia L1210 cells (1×10^5 /0.2 ml) were transplanted in the intraperitoneal cavity of DBA/2 strain female mice. Four days later, a sample of the abdominal ascites was taken and centrifuged to obtain L1210 cells. These cells were suspended in an RPMI 1640 medium supplemented with fetal bovine serum and 2-mercaptoethanol to have a final concentration of 5×10^4 cells/0.9 ml.
Each of the compounds of the present invention was dissolved in the medium shown above.
A portion (0.9 ml) of the L1210 cell suspension was mixed with 0.1 ml of the test solution ranging from 0.62 to 1000 μg/ml, and the mixture was incubated in a 5% CO2 atmosphere for 48 hours at 37° C. The cell count was determined both before and after the incubation, and the concentration to inhibit the growth of L1210 cells by 50% of the control (IC50) was determined.

[2] = Stability of the compounds in aqueous solution (percent residue by high pressure liquid chromatography); type: physicochemical; settings: 0.5 (w/w) % in water, 40°±1° C.
Procedure: Each of the compounds of the present invention was dissolved in water to give a concentration of 0.5 (w/w) %. The aqueous solution was held at 40°±1° C. and samples were taken at given intervals. They were subjected to high pressure liquid chromatography and the percent residue was calculated for each sample by measuring the peak area ratio.
The percent residue for the compounds of the present invention after the lapse of a given period is shown in Table 2, with the value for the start of the experiment being taken as 100%.

mouse leukemia L1210 [3] = experiment: Life extending effect against mouse leukemia L1210; type: in vivo; settings: 9 consecutive days, >125 considered effective
Procedure: Leukemia cells L1210 (1×10^5 cells/0.2 ml) were inoculated in the intraperitoneal cavity of CDF1 -SLC female mice (6 mice per group). Two compounds of the present invention were each diluted with physiological saline in various concentrations, and starting on the day following the transplantation, each dilution was administered to the mice for 9 consecutive days in a volume of 0.1 ml 10 g (body weight).
30 Days after the inoculation, the mean survival time (day) for each treated group was calculated, and divided by the mean survival time of the control group, and multiplied by 100 to obtain the percent life prolongation (T/C). T/C values greater than 125 are considered to be effective.

rats = experiment: Toxicity in rats (decrease rate of body weight); type: in vivo, rat; settings: intraperitoneal, once a day for 10 days, 6.25 mg/ml in 0.2 ml/100 g
Procedure: The compound No. 1 was dissolved in physiological saline (the concentration of the compound No. 1: 6.25 mg/ml). The obtained solution was administered intraperitoneally to rats once a day for 10 consecutive days in a volume of 0.2 ml/100 g (body weight).
Decrease rate of body weight of rats was determined as follows: [formula]

Sarcoma 180 = settings: cited from earlier work
[4] = system: Gram-positive microorganisms; settings: cited from earlier work
leukemia EL-4 = settings: cited from earlier work
Ehrlich carcinoma = settings: cited from earlier work
[5] = prior art statement; cited from earlier work
mouse leukemia L1210 [6] = settings: cited from earlier work

SMILES | IC50 [1] [µg/mL] | Percent residue in aqueous solution ([2]; Time 0 (taken as 100%)) [%] | Percent residue in aqueous solution ([2]; Time 12 (time unit not given)) [%] | Percent residue in aqueous solution ([2]; Time 24 (time unit not given)) [%] | Percent residue in aqueous solution ([2]; Time 48 (time unit not given)) [%] | Percent residue in aqueous solution ([2]; Time 72 (time unit not given)) [%] | Percent residue in aqueous solution ([2]; Time 120 (time unit not given)) [%] | Percent residue in aqueous solution ([2]; Time 168 (time unit not given)) [%] | other results
N=C(N)NCc1ccccc1CCCCC(=O)N[C@@H](CO)C(=O)NCCCCNCCCN [Compound 8, 10-{N-[5-(2-GMP)Pentanoyl]-L-ceryl}-1,5,10-TAD trihydrochloride] | 0.97 | 100 | 99.7 | 99.9 | 99.5 | 99.8 | 99.7 | 99.8 | –
N=C(N)Nc1ccc(CCCC(=O)NCC(=O)NCCCCNCCCN)cc1 [Compound 2, 10-{N-[4-(4-GP)Butanoyl]glycyl}-1,5,10-TAD trihydrochloride] | – | 100 | 99.7 | 99.9 | 99.8 | 99.9 | 100 | 99.8 | T/C (percent life prolongation) (mouse leukemia L1210 [3]; 0.39 mg/kg/day): 109%; T/C (percent life prolongation) (mouse leukemia L1210 [3]; 0.78 mg/kg/day): 145%; T/C (percent life prolongation) (mouse leukemia L1210 [3]; 1.56 mg/kg/day): 435%; T/C (percent life prolongation) (mouse leukemia L1210 [3]; 3.13 mg/kg/day): 435%; T/C (percent life prolongation) (mouse leukemia L1210 [3]; 6.25 mg/kg/day): 435%; T/C (percent life prolongation) (mouse leukemia L1210 [3]; 12.50 mg/kg/day): 435%; T/C (percent life prolongation) (mouse leukemia L1210 [3]; 25.00 mg/kg/day): 435%; T/C (percent life prolongation) (mouse leukemia L1210 [3]; 50.00 mg/kg/day): 15%
N=C(N)Nc1ccc(CCCCC(=O)N[C@@H](CO)C(=O)NCCCCNCCCN)cc1 [Compound 6, 10-{N-[5-(4-GP)Pentanoyl]-L-seryl}-1,5,10-TAD trihydrochloride] | – | 100 | 99.5 | 99.8 | 99.7 | 99.7 | 99.5 | 100 | –
N=C(N)Nc1ccc(CCCC(=O)N[C@@H](CO)C(=O)NCCCCNCCCN)cc1 [Compound 1, 10-{N-[4-(4-GP)Butanoyl]-L-seryl}-1,5,10-TAD trihydrochloride] | – | 100 | 99.8 | 99.6 | 99.8 | 99.5 | 99.6 | 99.5 | T/C (percent life prolongation) (mouse leukemia L1210 [3]; 0.39 mg/kg/day): 149%; T/C (percent life prolongation) (mouse leukemia L1210 [3]; 0.78 mg/kg/day): 406%; T/C (percent life prolongation) (mouse leukemia L1210 [3]; 1.56 mg/kg/day): 435%; T/C (percent life prolongation) (mouse leukemia L1210 [3]; 3.13 mg/kg/day): 435%; T/C (percent life prolongation) (mouse leukemia L1210 [3]; 6.25 mg/kg/day): 435%; T/C (percent life prolongation) (mouse leukemia L1210 [3]; 12.50 mg/kg/day): 420%; T/C (percent life prolongation) (mouse leukemia L1210 [3]; 25.00 mg/kg/day): 178%; Decrease rate of body weight of rats (rats): very small; toxicity (rats; rats): a little
N=C(N)NCc1cccc(CCC(=O)N[C@@H](CO)C(=O)NCCCCNCCCN)c1 [Compound 5, 10-{N-[3-(3-GMP)Propanoyl]-L-seryl}-1,5,10-TAD trihydrochloride] | – | 100 | 99.9 | 99.6 | 99.6 | 99.9 | 99.6 | 99.8 | –
N=C(N)NCCCCC(O)CC(=O)NC(O)C(=O)NCCCCNCCCN (stereo not drawn) [Spergualin] | – | 100 | – | – | – | – | – | – | antineoplastic effects (Sarcoma 180): significant antineoplastic effects; inhibit the growth of Gram-positive microorganisms [4]: ability to inhibit the growth; antineoplastic effects (leukemia EL-4): significant antineoplastic effects; antineoplastic effects (Ehrlich carcinoma): significant antineoplastic effects; stability in an aqueous solution [5]: unstable; antineoplastic effects (mouse leukemia L1210 [6]): significant antineoplastic effects
N=C(N)NCc1ccc(CCC(=O)N[C@@H](CO)C(=O)NCCCCNCCCN)c(Cl)c1 [Compound 9, 10-{N-[3-(2-Chloro-4-GMP)propanoyl]-L-seryl}-1,5,10-TAD trihydrochloride] | – | 100 | 99.8 | 99.8 | 99.7 | 100 | 99.5 | 99.6 | –
N=C(N)NCCCc1ccc(C(=O)NCC(=O)NCCCCNCCCN)cc1 [Compound 7, 10-{N-[4-(3-GPro)Benzoyl]glycyl}-1,5,10-TAD trihydrochloride] | 0.92 | 100 | 99.6 | 99.6 | 100 | 100 | 99.9 | 99.7 | –
N=C(N)NCCCc1ccc(C(=O)N[C@@H](CO)C(=O)NCCCCNCCCN)cc1 [Compound 4, 10-{N-[4-(3-GPro)Benzoyl]-L-seryl}-1,5,10-TAD trihydrochloride] | 1.1 | 100 | 99.6 | 99.9 | 99.6 | 99.7 | 99.9 | 99.5 | –
N=C(N)NCc1ccc(CCC(=O)N[C@@H](CO)C(=O)NCCCCNCCCN)cc1 [Compound 3, 10-{N-[3-(4-GMP)Propanoyl]-L-seryl}-1,5,10-TAD trihydrochloride] | – | 100 | 99.6 | 99.5 | 99.8 | 99.6 | 99.6 | 99.8 | –
